In BindingDB's records for PubMed 29133594 (University of North Carolina at Chapel Hill):
pIC50: −log10 of the molar value.

Legend:
[1] = target: RAC-alpha serine/threonine-protein kinase (Homo sapiens, UniProt P31749); assay: Inhibition of AKT1 (unknown origin)
Aurora kinase A = target: T1, Aurora kinase A (Homo sapiens, UniProt O14965); assay: Inhibition of AURKA (unknown origin)
T1 sequence (O14965 whole entry): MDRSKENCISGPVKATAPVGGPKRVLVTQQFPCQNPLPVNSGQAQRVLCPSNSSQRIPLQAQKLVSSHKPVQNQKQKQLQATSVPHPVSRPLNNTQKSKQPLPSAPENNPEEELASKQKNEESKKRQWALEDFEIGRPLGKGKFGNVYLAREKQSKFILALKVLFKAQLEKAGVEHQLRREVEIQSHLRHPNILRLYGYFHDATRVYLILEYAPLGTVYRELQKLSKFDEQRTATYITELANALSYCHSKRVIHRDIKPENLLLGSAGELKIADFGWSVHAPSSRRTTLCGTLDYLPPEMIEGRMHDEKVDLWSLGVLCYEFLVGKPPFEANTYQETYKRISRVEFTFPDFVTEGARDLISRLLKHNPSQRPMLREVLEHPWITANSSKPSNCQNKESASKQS

Aurora kinase B = Aurora kinase B (Homo sapiens, UniProt Q96GD4); assay: Inhibition of AURKB (unknown origin)
Sequence of Aurora kinase B (Q96GD4 whole entry): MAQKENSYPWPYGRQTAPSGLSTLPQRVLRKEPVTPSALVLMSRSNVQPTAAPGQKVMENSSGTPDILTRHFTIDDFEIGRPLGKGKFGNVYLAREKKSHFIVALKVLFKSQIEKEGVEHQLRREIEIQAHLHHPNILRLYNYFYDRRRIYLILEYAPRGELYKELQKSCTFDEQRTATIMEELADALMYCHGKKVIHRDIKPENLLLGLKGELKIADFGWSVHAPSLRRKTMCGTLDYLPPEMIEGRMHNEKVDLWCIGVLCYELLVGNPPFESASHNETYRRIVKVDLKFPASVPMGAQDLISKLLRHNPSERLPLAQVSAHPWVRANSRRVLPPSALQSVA

[2] = target: RAF proto-oncogene serine/threonine-protein kinase (Homo sapiens, UniProt P04049); assay: Inhibition of CRAF (unknown origin)
Sequence of RAF proto-oncogene serine/threonine-protein kinase (P04049 whole entry): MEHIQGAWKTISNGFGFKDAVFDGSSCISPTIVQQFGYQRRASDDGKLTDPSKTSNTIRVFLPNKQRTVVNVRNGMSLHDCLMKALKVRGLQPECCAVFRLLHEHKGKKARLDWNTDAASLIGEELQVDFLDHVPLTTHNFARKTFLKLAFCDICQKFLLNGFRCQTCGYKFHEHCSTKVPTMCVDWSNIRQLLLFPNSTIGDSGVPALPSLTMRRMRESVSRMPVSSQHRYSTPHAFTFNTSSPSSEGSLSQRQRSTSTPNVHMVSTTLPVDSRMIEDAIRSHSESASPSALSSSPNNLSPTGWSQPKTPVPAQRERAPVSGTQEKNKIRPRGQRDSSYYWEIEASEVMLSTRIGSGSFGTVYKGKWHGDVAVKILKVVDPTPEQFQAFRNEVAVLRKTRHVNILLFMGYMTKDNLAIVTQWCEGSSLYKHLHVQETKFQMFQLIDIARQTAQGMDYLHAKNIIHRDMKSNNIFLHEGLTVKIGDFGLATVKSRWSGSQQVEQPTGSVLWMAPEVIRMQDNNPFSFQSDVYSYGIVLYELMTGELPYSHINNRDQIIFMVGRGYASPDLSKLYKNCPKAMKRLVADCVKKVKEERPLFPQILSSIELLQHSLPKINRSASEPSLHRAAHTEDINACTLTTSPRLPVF

[3] = target: Mitogen-activated protein kinase 3 (Homo sapiens, UniProt P27361); assay: Inhibition of ERK1 (unknown origin)
Sequence of Mitogen-activated protein kinase 3 (P27361 whole entry): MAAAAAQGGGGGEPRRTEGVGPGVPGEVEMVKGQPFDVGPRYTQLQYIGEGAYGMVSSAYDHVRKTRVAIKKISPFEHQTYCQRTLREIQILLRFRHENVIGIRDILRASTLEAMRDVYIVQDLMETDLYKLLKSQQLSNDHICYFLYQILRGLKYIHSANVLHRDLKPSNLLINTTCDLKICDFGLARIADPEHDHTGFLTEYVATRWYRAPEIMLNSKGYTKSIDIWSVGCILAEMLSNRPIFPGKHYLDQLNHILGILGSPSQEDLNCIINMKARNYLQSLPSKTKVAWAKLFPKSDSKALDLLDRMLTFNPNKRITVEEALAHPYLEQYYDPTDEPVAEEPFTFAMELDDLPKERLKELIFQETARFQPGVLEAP

[4] = target: Serine/threonine-protein kinase PLK1 (Homo sapiens, UniProt P53350); assay: Inhibition of PLK1 (unknown origin)
Sequence of Serine/threonine-protein kinase PLK1 (P53350 whole entry): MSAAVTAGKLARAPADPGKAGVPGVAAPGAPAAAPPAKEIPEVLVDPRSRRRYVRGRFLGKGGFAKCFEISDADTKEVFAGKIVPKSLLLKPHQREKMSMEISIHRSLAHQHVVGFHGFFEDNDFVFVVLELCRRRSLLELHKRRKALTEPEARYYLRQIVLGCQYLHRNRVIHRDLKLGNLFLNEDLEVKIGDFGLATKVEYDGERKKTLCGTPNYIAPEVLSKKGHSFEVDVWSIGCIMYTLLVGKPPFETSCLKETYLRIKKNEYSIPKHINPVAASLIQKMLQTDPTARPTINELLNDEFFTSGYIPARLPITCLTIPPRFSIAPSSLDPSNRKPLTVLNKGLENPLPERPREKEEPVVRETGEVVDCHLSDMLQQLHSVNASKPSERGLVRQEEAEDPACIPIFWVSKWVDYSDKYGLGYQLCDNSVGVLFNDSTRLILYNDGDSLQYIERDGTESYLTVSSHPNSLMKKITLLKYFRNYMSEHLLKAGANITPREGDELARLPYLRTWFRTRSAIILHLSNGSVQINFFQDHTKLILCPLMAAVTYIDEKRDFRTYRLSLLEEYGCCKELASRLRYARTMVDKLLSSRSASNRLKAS

[5] = target: Serine/threonine-protein kinase PLK3 (Homo sapiens, UniProt Q9H4B4); assay: Inhibition of PLK3 (unknown origin)
Sequence of Serine/threonine-protein kinase PLK3 (Q9H4B4 whole entry): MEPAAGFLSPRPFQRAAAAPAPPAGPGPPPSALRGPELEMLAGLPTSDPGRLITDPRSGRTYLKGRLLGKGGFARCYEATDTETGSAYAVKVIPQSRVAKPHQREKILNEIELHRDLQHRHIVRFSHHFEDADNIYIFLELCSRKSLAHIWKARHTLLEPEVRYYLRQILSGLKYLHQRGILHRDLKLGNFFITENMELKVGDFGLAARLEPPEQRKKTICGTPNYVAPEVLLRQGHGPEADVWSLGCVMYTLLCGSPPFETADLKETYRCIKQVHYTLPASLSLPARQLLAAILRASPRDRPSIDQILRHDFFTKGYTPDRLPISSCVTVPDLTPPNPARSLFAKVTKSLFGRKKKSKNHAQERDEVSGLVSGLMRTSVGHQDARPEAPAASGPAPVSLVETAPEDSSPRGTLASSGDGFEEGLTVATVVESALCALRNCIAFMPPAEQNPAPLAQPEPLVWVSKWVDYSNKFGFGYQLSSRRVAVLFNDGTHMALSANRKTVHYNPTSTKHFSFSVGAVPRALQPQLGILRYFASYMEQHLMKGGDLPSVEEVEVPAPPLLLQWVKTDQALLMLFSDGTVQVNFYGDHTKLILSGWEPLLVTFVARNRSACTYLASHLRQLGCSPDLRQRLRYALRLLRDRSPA

Measured: pIC50

Sequence of RAC-alpha serine/threonine-protein kinase (P31749 whole entry): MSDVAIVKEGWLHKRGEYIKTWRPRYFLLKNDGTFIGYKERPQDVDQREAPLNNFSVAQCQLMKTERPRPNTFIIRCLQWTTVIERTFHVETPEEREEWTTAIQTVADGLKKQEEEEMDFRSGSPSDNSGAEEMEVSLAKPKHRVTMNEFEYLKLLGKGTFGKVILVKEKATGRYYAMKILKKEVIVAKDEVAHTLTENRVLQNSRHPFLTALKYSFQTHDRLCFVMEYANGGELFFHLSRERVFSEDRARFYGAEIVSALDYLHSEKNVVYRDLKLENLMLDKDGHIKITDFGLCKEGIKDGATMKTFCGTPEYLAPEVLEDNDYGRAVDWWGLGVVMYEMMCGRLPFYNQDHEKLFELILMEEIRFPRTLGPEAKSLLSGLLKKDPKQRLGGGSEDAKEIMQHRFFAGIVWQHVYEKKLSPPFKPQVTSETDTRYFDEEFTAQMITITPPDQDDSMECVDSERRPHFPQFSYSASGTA

CCN1CCN(Cc2ccc(Nc3ncc(F)c(-c4cc(F)c5nc(C)n(C(C)C)c5c4)n3)nc2)CC1 [Abemaciclib]
< 4.70: [1] | Aurora kinase A | Aurora kinase B | [2] | [3] | [4] | [5]
